Assay in all cases: NCI anticancer screen, dose series, 48 h
Assay [1] relates to DU-145 prostate.
In assay [2] the test system is HCT-15 colon.
For assay [3], the system named is MDA-MB-435.
For assay [4], the system named is A549 NSCLC.
In assay [5] the test system is MALME-3M melanoma.
Assay [6] relates to NCI/ADR-RES ovarian.
Assay [7] concerns CAKI-1 renal.
For assay [8], the system named is HT29 colon.
The test system of assay [9] is HS 578T breast.
The test system of assay [10] is T-47D breast.

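In this assay, cells in 96-well plates receive the compound at five concentrations for 48 hours. Endpoints are linearly interpolated between the surrounding concentrations. Here, GI50 denotes the concentration required for 50% inhibition of growth. TGI is the concentration that stops growth completely.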 A value given as a limit tells only on which side of the number the result lay.

On to `CN(C)c1ccc(-c2c(C#N)c(S)n(NS(=O)(=O)c3ccccc3)c(=O)c2C#N)cc1`, for which the TGI in [1] is > 100 µM; in assay [2], 57.7 µM; in [3], 92.6 µM; in assay [4], > 100 µM; in assay [5], > 100 µM; in assay [6], 49.5 µM. The TGI in assay [7] was determined as 76.1 µM.

`COc1ccc(CC(CO)NC(=O)OCc2ccccc2)cc1Oc1ccc(CC(CO)NC(=O)OCc2ccccc2)cc1` (stereo not given): the TGI is 46 µM in assay [1]; > 100 µM in [2]; 23.6 µM in assay [8]; > 100 µM in [3]; 27.2 µM in [4]; 31.4 µM in assay [5]. Also, in [7], the TGI is 44.5 µM.

Regarding `CCOP(=O)(OCC)C1C(CO)OC(n2ccc(=O)[nH]c2=O)C1O` (stereo not given), the TGI in assay [2], in [9], in assay [8], in assay [4], in assay [5] and in assay [10] was > 100 µM throughout. Besides, in assay [7], the TGI is > 100 µM.

On to `C=C(Cl)/C(=C\Cl)CCC(Br)C(C)C` (stereo not given), for which the TGI in assay [1], in assay [9], in assay [8], in assay [3], in assay [4] and in assay [6] was > 100 µM each time. Also, the TGI in [7] was > 100 µM.

Consider `CN(C)C(CN)CC1=C(CC(CN)N(C)C)CCC1` (stereo not given), for which the TGI in assay [2], in [8], in assay [4], in assay [5], in assay [6] and in [7] was > 100 µM in each case.

On to `COc1ccc(/C(=N/O)c2ccccc2-c2nc3ccccc3c(=O)n2-c2ccc(S(=O)(=O)Nc3ncccn3)cc2)cc1C`, for which the TGI is > 31.6 µM in assay [1]; 28.6 µM in [2]; > 100 µM in assay [9]; 27.3 µM in assay [3]; > 31.6 µM in assay [4]; > 31.6 µM in assay [6]. Further, the values for the TGI in assay [10] and in assay [7] were 25.2 µM and > 31.6 µM, respectively.

Take `CCCCCCCCCC[C@H](O)[C@H]1CC[C@H]([C@H]2CC[C@H]([C@H](O)CC[C@H](O)CCCCCCC[C@@H](O)CC3=C[C@H](C)OC3=O)O2)O1`: the TGI in assay [2], in assay [3], in assay [4], in [5], in assay [6] and in assay [10] was > 100 µM in each case. In addition, the TGI in [7] is > 100 µM. The GI50 in assay [3] is 40.3 µM; in [4], 7.18 µM; in assay [6], 16.5 µM; in [10], 2.17 µM.

`COc1cc(/C=C/C(=O)O)ccc1C(=O)O/C=C/c1ccccc1`: the TGI in assay [2], in assay [8], in assay [4], in [5] and in assay [6] was > 100 µM throughout.

In the case of `CCCCOC(C)(C)/C=C/C(O)[C@](C)(O)[C@H]1[C@H](O)C[C@@]2(C)[C@@H]3CCc4c(cc(OC5OC(CO)C(O)C(O)C5O)c(O)c4C)C3(C)C(=O)C[C@]12C` (stereo not given in full), the TGI in assay [1], in assay [2], in [8], in assay [3], in assay [4] and in [5] was > 100 µM in each case. The TGI in [6], in assay [10] and in assay [7] was > 100 µM in each case.

As for `O=C(CP(=O)(O)O)c1cccs1`, the TGI in assay [2], in assay [8], in [4], in assay [5] and in [7] was > 100 µM throughout.

As for `c1ccc2c(c1)[nH]c1nc3cc(-c4ccc5nc6c(nc5c4)[nH]c4ccccc46)ccc3nc12`, the TGI was > 100 µM in assay [1]; > 32.3 µM in assay [2]; > 100 µM in assay [9]; > 100 µM in assay [8]; > 100 µM in assay [3]; > 100 µM in assay [4]. For the same compound, the TGI in assay [5], in assay [10] and in [7] was > 100 µM in each case.

Take `N#Cc1c(-c2ccccc2)/c(=C\Nc2ccc(Cl)cc2)c(=O)n2c1nc1ccccc12`: the TGI in assay [2], in [3], in assay [4], in assay [5], in [6] and in [10] was > 100 µM throughout. The TGI in assay [7] came out at 94.4 µM.

As for `CCC[C@H]1C(=O)N=C(N)N1C(=O)OCc1ccccc1`, the TGI in assay [2], in [9], in [8], in assay [3], in [5] and in [6] was > 100 µM in each case. In addition, in assay [7], the TGI was > 100 µM.

For `Cc1nn(C(=O)Cc2ccccc2)c2c1C(c1ccccc1O)SC(N)=N2` (stereo not given), the TGI in [1], in assay [2], in [9], in assay [8], in assay [3] and in [4] was > 100 µM throughout. Besides, the TGI in assay [5], in assay [10] and in [7] was > 100 µM each time.

For the compound `COc1ccc(N[C@H](CSc2ccc(C)cc2)c2ccc(F)cc2)cc1`, the TGI in assay [1], in [2], in assay [8], in assay [3], in assay [4] and in assay [6] was > 100 µM throughout. The TGI in assay [10] and in assay [7] was > 100 µM in each case.

`COc1cc(/C=C2\C(=O)N(C(=O)Cc3ccccc3)N=C2C)ccc1O`: the TGI in assay [2], in assay [4], in assay [5] and in [7] was > 100 µM in each case.

For the compound `COCOc1ccc(OC)cc1`, the TGI in [2], in [8], in [4], in assay [5], in assay [6] and in assay [7] was > 100 µM in each case.

For `CC(=O)NS(=O)(=O)c1ccc(NC(=O)c2c3ccccc3nc3ccccc23)cc1`, the TGI in [1], in assay [2], in assay [8], in assay [3], in assay [4] and in assay [5] was > 100 µM throughout. Further, the TGI in [6] and in assay [7] was > 100 µM throughout.

In the case of `COc1ccc(N2C(=O)c3c4c(c5c([nH]c6ncccc65)c3C2=O)CCC(C(C)(C)C)C4)cc1` (stereo not given), the TGI in assay [1] is > 100 µM; in assay [2], > 100 µM; in assay [9], 72.2 µM; in assay [8] it was > 100 µM; in [3], > 100 µM; in assay [4] it was > 100 µM. Further, the TGI in assay [6] and in [10] was > 100 µM each time.

`C/C(=C\c1ccccc1)C(=O)CCN1CCOCC1`: the TGI in assay [2] was 32.6 µM; in assay [8], 35.7 µM; in assay [4] it was > 100 µM; in assay [5], 33 µM; in assay [6], 50.5 µM; in assay [7], 32.5 µM.

Turning to `C/C(=N/NC(N)=S)c1ccc2ccccc2c1`, the TGI is > 100 µM in assay [2], 72.4 µM in assay [8], > 100 µM in assay [4] and > 100 µM in assay [5].

On to `CSC1CC2C(CC1(C)O)C2(C)C` (stereo not given), for which the TGI in assay [2], in assay [8], in [4], in assay [5] and in [7] was > 100 µM each time.

As to `CC(C)(C)N=c1n(C(C)(C)C)oc(=O)n1C(C)(C)C`, the TGI in assay [2], in assay [9], in assay [8], in assay [4], in assay [5] and in assay [6] was > 100 µM in each case. In [7], the TGI was > 100 µM.

Regarding `CCNC(=O)Nc1ccccn1`, the TGI in assay [1], in [9], in [8], in [3], in [4] and in [5] was > 100 µM in each case. Also, the TGI in assay [10] and in assay [7] was > 100 µM in each case.

`CCOC(=O)C1=C(C(C)=O)CSC(c2ccccc2)=N1`: the TGI in assay [2], in assay [8], in assay [4], in assay [5], in [6] and in assay [7] was > 100 µM throughout.

With `COC(=O)c1csnn1`, the TGI in assay [2], in [8], in assay [4] and in assay [5] was > 100 µM in each case.

With `Cc1cc2c(C)cc(=O)[nH]c2cc1N`, the TGI in [1], in assay [2], in assay [8], in assay [3], in assay [4] and in assay [6] was > 100 µM throughout. In addition, the TGI in assay [10] and in [7] was > 100 µM throughout.

`Nc1c2ccccc2nc2c1ccc1ncccc12`: the TGI is > 100 µM in assay [1]; > 100 µM in assay [2]; > 100 µM in assay [8]; > 100 µM in assay [3]; > 100 µM in [4]; 27 µM in [5]. Besides, the TGI in assay [6] is 89.1 µM; in assay [10], > 100 µM; in [7], 92.1 µM.

For the compound `CCC(C(=O)O)c1ccc(OCc2ccccc2)cc1` (stereo not given), the TGI in [8], in [4], in assay [5] and in [7] was > 100 µM each time.

Consider `Nn1c(CCCCCCCCc2nnc(COc3c(O)ccc4ccccc34)n2N)nnc1COc1c(O)ccc2ccccc12`, for which the TGI in assay [1], in assay [2], in assay [8], in assay [3], in assay [4] and in assay [5] was > 100 µM in each case. In addition, the TGI in assay [6] and in assay [7] was > 100 µM each time.

`COc1ccc(-c2cc(=O)c3cc4c(cc3[nH]2)OCO4)c(OC)c1OC`: the TGI in [2], in [8], in assay [4], in [5] and in assay [7] was > 100 µM each time.

In the case of `CCN(CC)CCNc1ccc2nnn3c4ccc(OC)cc4c(=O)c1c23`, the TGI in assay [2] turned out to be 18.7 µM; in assay [8], 15.9 µM; in assay [4] it was 19.4 µM; in assay [5], 22.3 µM; in assay [7] it was 27.6 µM.

Regarding `CC(C)(C)C1=Cc2cc3cc(C(C)(C)C)[nH]c(=O)c3cc2S(=O)(=O)N1`, the TGI in assay [8] turned out to be 41.4 µM; in [4], 75.3 µM; in assay [5] it was 57.7 µM; in assay [7] it was 38.5 µM.

For the compound `COc1ccc(Nc2nc3ccc(C(F)(F)F)cc3nc2C(=O)O)cc1OC`, the TGI in assay [1] was > 100 µM; in [2], > 100 µM; in [9], 96.6 µM; in assay [8], > 100 µM; in assay [3] it was 82.5 µM; in [5], > 100 µM. Also, the TGI in assay [6] is 57.5 µM; in [7], > 100 µM.

With `OC[C@@H](O)[C@H]1NC[C@@H](O)[C@H]1O`, the TGI in assay [1], in [2], in assay [9], in assay [8], in assay [3] and in assay [4] was > 100 µM each time. Also, the TGI in assay [5] and in [7] was > 100 µM throughout.

Turning to `C[n+]1c(-c2ccccc2)cc2/c(=C\c3ccc([N+](=O)[O-])cc3)c3ccccc3n21`, the TGI in [1] was 35.3 µM; in assay [2] it was > 100 µM; in assay [9], 4.04 µM; in [8], > 32.6 µM; in [3] it was 14.4 µM; in [4], > 100 µM. Also, the TGI in assay [6] and in [7] was > 100 µM in each case.

The values above are taken from PubChem BioAssay (NCI).
